Test results as given in patent US10364247B2, “Preparation and use of novel protein kinase inhibitors” (Ruijin Hospital Affiliated to Shanghai Jiao Tong University …, priority 2015, dated 2019).

Experiments:
Format in all cases: cell-based, murine
BaF3-TEL-LYN = biological target: T1, BaF3-TEL-LYN (Homo sapiens, UniProt P07948); assay: Antiproliferative activity, kinase-dependent Ba/F3 cells (MTT/MTS); details: 48 hours, cell viability, read-out: tel-LYN IC50
T1 construct: fused on or other part: P41212 (Transcription factor ETV6)
T1 sequence (P07948 whole entry, change not shown, the tested form may be a part): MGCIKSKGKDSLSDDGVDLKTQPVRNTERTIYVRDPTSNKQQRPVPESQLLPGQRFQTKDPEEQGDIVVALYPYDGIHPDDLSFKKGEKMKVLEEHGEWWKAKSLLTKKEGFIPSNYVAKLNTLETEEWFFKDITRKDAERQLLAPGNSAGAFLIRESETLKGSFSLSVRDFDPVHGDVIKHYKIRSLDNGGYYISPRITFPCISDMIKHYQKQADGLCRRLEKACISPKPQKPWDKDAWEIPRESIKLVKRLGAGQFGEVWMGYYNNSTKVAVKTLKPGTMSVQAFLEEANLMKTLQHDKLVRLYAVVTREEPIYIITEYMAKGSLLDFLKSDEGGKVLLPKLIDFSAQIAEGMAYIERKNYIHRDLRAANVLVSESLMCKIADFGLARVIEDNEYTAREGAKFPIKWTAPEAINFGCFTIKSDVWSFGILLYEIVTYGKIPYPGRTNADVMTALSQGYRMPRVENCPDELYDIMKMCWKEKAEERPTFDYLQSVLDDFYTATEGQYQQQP
Experimental: (§1) Following up on the kinome data, the ability of compounds disclosed in the present invention to inhibit proliferation of cells that are dependent on selected protein kinases was tested. […] In addition, compounds were assayed to measure their capacity to inhibit TIE1, LYN, EML4-ALK, INSR and HCK kinases.
(§2) The murine cell line used is the BaF/3 cell line transformed with BCR/ABL cDNA (BaF/3-p210) or BCR/ABL-T315I mutant (Ba/F3-p210-T315I). These cells are maintained in RPMI/10% fetal calf serum (RPMI/FCS) supplemented with penicillin 50 μg/mL, streptomycin 50 μg/mL and L-glutamine […]. Untransformed BaF/3 cells (Wt-BaF/3) are similarly maintained with the addition of 15% of WEHI conditioned medium as a source of IL3.
(§3) Cells were seeded at a density of 20,000 cells/well into 96-well plates.
(§4) The background control wells to which media with no cells added and the vehicle control wells were included on each plate in triplicate. Cell viability was determined using MTT (Sigma, St. Louis, Mo., USA) and MTS (Promega, Madison, Wis., USA), according to the manufacturer's instructions. Results were analyzed using GraphPad Prism 5.0 (GraphPad Software, San Diego, Calif.) and IC50 values were calculated from cell viability dose-response curves and defined as the concentration of compound needed to reduce cell viability to 50% of a vehicle control (DMSO) (Table 3).
(§5) Cell proliferation assays of compounds of the invention against TIE1, LYN, EML4-ALK, INSR and Hck were conducted using identical methods as described above for BCR/ABL, except that BaF3-TEL-TIE1, BaF3-TEL-LYN, BaF3-EML4-ALK, BaF3-TEL-INSR, and BaF3-TEL-HCK are used instead of BaF3-BCR/ABL (Table 3 and 4).

BaF3-TEL-TIE1 = biological target: T2, BaF3-TEL-TIE1 (Homo sapiens, UniProt P35590); assay: as above; details: 48 hours, cell viability, read-out: tel-TIE1 IC50
T2 construct: fused on or other part: P41212 (Transcription factor ETV6)
T2 sequence (P35590 whole entry, change not shown, the tested form may be a part): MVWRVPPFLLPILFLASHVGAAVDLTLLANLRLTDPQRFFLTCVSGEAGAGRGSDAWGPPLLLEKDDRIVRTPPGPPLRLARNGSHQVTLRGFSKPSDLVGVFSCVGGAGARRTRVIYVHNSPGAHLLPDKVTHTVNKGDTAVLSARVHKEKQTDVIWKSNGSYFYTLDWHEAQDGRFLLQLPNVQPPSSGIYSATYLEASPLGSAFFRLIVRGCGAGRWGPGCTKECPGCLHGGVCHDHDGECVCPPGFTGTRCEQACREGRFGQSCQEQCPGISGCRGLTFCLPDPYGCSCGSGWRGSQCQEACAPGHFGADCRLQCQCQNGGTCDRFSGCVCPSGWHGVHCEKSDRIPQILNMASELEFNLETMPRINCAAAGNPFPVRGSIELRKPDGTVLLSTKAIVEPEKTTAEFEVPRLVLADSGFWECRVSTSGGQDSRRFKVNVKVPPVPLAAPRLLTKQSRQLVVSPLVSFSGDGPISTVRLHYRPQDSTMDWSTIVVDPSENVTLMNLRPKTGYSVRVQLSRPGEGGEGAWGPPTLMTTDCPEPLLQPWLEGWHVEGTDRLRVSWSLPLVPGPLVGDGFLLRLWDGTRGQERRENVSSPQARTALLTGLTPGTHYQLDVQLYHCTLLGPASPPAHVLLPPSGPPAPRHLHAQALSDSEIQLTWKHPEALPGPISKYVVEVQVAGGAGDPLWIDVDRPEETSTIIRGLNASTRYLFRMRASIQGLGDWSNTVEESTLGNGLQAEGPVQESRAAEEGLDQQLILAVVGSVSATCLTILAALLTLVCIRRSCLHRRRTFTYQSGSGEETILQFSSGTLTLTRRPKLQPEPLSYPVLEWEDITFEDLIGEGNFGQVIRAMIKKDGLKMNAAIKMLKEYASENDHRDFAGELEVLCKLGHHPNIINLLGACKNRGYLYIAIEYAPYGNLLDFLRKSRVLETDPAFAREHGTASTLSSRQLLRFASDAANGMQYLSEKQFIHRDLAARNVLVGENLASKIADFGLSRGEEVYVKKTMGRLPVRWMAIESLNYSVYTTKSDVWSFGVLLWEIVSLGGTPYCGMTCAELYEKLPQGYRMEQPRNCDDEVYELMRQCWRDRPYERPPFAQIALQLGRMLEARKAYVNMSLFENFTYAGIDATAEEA
Experimental: as §1, §2, §3, §4, §5

BaF3-EML4-ALK = biological target: T3, BaF3-EML4-ALK (Homo sapiens, UniProt Q9UM73); assay: as above; details: 48 hours, cell viability, read-out: EML4-ALK IC50
T3 construct: fused on or other part: Q9HC35 (Echinoderm microtubule-associated protein-like 4)
T3 sequence (Q9UM73 whole entry, change not shown, the tested form may be a part): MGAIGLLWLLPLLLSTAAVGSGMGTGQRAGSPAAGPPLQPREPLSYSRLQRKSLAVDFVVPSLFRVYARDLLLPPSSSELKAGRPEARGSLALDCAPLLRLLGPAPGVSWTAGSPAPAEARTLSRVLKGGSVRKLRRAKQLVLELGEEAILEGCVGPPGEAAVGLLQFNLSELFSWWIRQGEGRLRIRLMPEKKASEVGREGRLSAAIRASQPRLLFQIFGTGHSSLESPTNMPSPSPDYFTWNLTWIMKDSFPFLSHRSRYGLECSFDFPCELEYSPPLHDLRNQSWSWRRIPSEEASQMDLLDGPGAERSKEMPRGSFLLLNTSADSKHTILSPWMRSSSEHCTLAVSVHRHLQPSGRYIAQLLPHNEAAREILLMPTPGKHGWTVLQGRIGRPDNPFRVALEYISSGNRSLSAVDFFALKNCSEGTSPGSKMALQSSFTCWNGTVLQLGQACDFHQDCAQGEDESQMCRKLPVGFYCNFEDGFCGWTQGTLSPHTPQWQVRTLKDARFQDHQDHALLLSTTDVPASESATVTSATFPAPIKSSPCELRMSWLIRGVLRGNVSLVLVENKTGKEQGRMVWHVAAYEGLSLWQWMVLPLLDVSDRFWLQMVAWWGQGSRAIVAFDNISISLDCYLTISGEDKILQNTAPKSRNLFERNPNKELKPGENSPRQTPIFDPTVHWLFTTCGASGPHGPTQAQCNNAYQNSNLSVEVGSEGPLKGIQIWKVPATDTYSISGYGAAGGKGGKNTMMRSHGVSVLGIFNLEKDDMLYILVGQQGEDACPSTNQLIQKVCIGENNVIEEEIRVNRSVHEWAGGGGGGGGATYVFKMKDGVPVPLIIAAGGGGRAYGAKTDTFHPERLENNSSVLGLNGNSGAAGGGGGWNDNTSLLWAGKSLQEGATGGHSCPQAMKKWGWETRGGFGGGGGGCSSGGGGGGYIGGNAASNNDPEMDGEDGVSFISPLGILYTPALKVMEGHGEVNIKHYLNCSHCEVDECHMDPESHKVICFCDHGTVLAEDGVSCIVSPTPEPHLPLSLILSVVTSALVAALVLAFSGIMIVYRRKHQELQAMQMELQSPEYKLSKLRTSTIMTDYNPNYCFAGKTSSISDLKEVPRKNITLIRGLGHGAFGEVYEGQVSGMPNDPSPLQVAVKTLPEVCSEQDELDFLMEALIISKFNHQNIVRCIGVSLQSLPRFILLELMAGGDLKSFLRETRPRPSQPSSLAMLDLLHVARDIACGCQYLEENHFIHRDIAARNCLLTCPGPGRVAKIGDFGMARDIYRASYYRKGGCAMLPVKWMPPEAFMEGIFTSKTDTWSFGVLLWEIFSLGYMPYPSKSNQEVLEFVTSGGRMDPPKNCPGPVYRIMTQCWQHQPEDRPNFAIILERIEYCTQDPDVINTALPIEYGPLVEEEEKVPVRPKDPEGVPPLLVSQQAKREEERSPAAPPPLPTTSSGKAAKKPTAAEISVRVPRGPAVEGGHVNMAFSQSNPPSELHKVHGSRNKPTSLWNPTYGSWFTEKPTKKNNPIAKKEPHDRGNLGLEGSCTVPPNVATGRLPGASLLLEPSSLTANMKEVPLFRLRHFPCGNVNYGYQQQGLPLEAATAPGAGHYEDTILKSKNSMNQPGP
Experimental: as §1, §2, §3, §4, §5

BaF3-BCR/ABL = biological target: T4, BaF3-BCR/ABL (Homo sapiens, UniProt P00519); assay: as above; details: 48 hours, cell viability, read-out: BCR/ABL IC50
T4 construct: fused on or other part: P11274 (Breakpoint cluster region protein)
Experimental: as §1, §2, §3, §4

BaF3-BCR/ABL-T315I = biological target: T5, BaF3-BCR/ABL-T315I (Homo sapiens, UniProt P00519, T315I, cells depend on it); assay: as above; details: 48 hours, cell viability, read-out: BCR/ABL T315I IC50
T5 construct: fused on or other part: P11274 (Breakpoint cluster region protein)
Experimental: as §1, §2, §3, §4

BaF3-KRASD12 = assay: Oncogenic RAS dependent cell proliferation (CellTiter Glo); details: Mus musculus, BaF3-KRASD12 cells, 48 hours, read-out: KRas-BaF3 IC50
Experimental: (§6) The BaF/3 cell line transformed with oncogenic NRAS or KRAS (BaF/3-NRASD12 or BaF/3-KRASD12) and the parental BaF/3 cells were used to measure the abilities of compounds of the invention to suppress RAS transformation (Table 5). Cells were seeded at a density of 5000 cells/well into 96-well plates. […] The background control wells to which media with no cells added and the vehicle control wells were included on each plate in triplicate. Cell viability was determined using CellTiter Glo Assay (Promega) according to manufacture's instruction with a minor modification of diluting 1 part CellTiter Glo reagent to 4 parts phosphate buffered saline (PBS) before use. The luminescence value was read out by an Envision (PerkinElmer).

BaF3-NRASD12 = assay: as above; details: Mus musculus, BaF3-NRASD12 cells, 48 hours, read-out: NRas-BaF3 IC50
Experimental: as §6

Wt-BaF3 = assay: Parental Ba/F3 cell proliferation (CellTiter Glo); details: Mus musculus, parental BaF/3 cells, 48 hours
Experimental: as §2, §6

Compound | GI50 (BaF3-TEL-LYN) [µM] | GI50 (BaF3-TEL-TIE1) [µM] | GI50 (BaF3-EML4-ALK) [µM] | GI50 (BaF3-BCR/ABL) [µM] | GI50 (BaF3-BCR/ABL-T315I) [µM] | IC50 (BaF3-KRASD12) [µM] | IC50 (BaF3-NRASD12) [µM] | IC50 (Wt-BaF3) [µM]
Cc1ccc(C(F)(F)F)cc1N1Cc2cnc(Nc3ccc(N4CCOCC4)nc3)nc2N(C)C1 [ID-4, 8-methyl-6-(2-methyl-5-(trifluoromethyl)phenyl)-N-(6-morpholinopyridin-3-yl)-5,6,7,8-tetrahydropyrimido[4,5-d]pyrimidin-2-amine] | 4.29 | 4.43 | 8.24 | 1.63 | > 10 |  |  | 
Cc1ccc(Nc2ncc3c(n2)N(C)CN(c2cc(NC(=O)c4cccc(C(F)(F)F)c4)ccc2Cl)C3)cn1 [IC-7, N-(4-chloro-3-(1-methyl-7-((6-methylpyridin-3-yl)amino)-1,4-dihydropyrimido[4,5-d]pyrimidin-3(2H)-yl)phenyl)-3-(trifluoromethyl)benzamide] | 5.34 | 6.85 | 9.73 | 9 | > 10 |  |  | 
Cc1ccc(Nc2ncc3c(n2)N(C)CN(c2cc(C(=O)NCCO)ccc2C)C3)cn1 [IC-2, N-(2-hydroxyethyl)-4-methyl-3-(1-methyl-7-((6-methylpyridin-3-yl)amino)-1,4-dihydropyrimido[4,5-d]pyrimidin-3(2H)-yl)benzamide] | > 10 | > 10 | > 10 | 6.36 | > 10 | > 10 | > 10 | > 10
CN1CN(c2cccc(C(F)(F)F)c2)Cc2cnc(Nc3ccc(N4CCOCC4)nc3)nc21 [ID-5, 8-methyl-N-(6-morpholinopyridin-3-yl)-6-(3-(trifluoromethyl)phenyl)-5,6,7,8-tetrahydropyrimido[4,5-d]pyrimidin-2-amine] | 15 | 6.17 | > 10 |  | > 10 |  |  | 
Cc1ccc(N)cc1N1Cc2cnc(Nc3ccc(N4CCOCC4)nc3)nc2N(C)C1 [ID-6, 6-(5-amino-2-methylphenyl)-8-methyl-N-(6-morpholinopyridin-3-yl)-5,6,7,8-tetrahydropyrimido[4,5-d]pyrimidin-2-amine] | 2.31 | 0.809 | > 10 | 0.353 | > 10 |  |  | 
Cc1ccc(NC(=O)c2cccc(C(F)(F)F)c2)cc1N1Cc2cnc(Nc3ccc(N4CCN(C)CC4)nc3)nc2N(C)C1 [IA-14, N-(4-methyl-3-(1-methyl-7-((6-(4-methylpiperazin-1-yl)pyridin-3-yl)amino)-1,4-dihydropyrimido[4,5-d]pyrimidin-3(2H)-yl)phenyl)-3-(trifluoromethyl)benzamide] |  |  |  |  |  | 1.46 | 1.53 | 3.67
Cc1ccc(NC(=O)c2cccc(C(F)(F)F)c2)cc1N1Cc2cnc(NC3CCN(C)CC3)nc2N(C)C1 [IA-1, N-(4-methyl-3-(1-methyl-7-((1-methylpiperidin-4-yl)amino)-1,4-dihydropyrimido[4,5-d]pyrimidin-3(2H)-yl)phenyl)-3-(trifluoromethyl)benzamide] | ~2.79 | 1.75 | 1.53 | 4.28 | 4.15 | 10.1 | 5.22 | 8.83
CN1CN(c2ccc(Br)cc2F)Cc2cnc(Nc3ccc(N4CCOCC4)nc3)nc21 [ID-3, 6-(4-bromo-2-fluorophenyl)-8-methyl-N-(6-morpholinopyridin-3-yl)-5,6,7,8-tetrahydropyrimido[4,5-d]pyrimidin-2-amine] | 7.27 | 4.55 | 20 | > 10 | > 10 |  |  | 
